Test results taken from ChEMBL document CHEMBL5724914, “Linking interpersonal differences in gut microbiota composition and drug biotransformation activity” (2024).

settings: human gut metagenome, 24 h, 2 µM
Further: call rule not given here.

| Bacterial Biotransformation | Compound |
| --- | --- |
| Compound NOT metabolized | COc1ccccc1OCC(O)CN1CCN(CC(=O)Nc2c(C)cccc2C)CC1 (stereo not given) [RANOLAZINE] |
| Compound metabolized | Nc1ccc(/N=N/c2ccccc2)c(N)n1 [PHENAZOPYRIDINE] |

test: (§1) The drug is tested on WLS-310 corresponding to human gut metagenome with ENA study accession number: PRJEB37062 and ENA sample accession number: ERS12561785 for biotransformation under anaerobic condition. The drug concentrations were measured over 9 timepoints collected between 0 and 24 hours of incubation by liquid-chromatography-coupled mass spectrometry (LC–MS); settings: 2 µM

| Bacterial Biotransformation | Compound |
| --- | --- |
| Compound NOT metabolized | COc1ccccc1OCC(O)CN1CCN(CC(=O)Nc2c(C)cccc2C)CC1 (stereo not given) [RANOLAZINE] |
| Compound metabolized | Nc1ccc(/N=N/c2ccccc2)c(N)n1 [PHENAZOPYRIDINE] |

settings: human gut metagenome, 24 h, 2 µM; remark: another data set of the same source

| Bacterial Biotransformation | Compound |
| --- | --- |
| Compound NOT metabolized | COc1ccccc1OCC(O)CN1CCN(CC(=O)Nc2c(C)cccc2C)CC1 (stereo not given) [RANOLAZINE] |
| Compound metabolized | Nc1ccc(/N=N/c2ccccc2)c(N)n1 [PHENAZOPYRIDINE] |

test: as §1, with “Z-025” for “WLS-310”, “rabbit” for “human”, “ERS12561824” for “ERS12561785”; settings: 2 µM

| Bacterial Biotransformation | Compound |
| --- | --- |
| Compound NOT metabolized | COc1ccccc1OCC(O)CN1CCN(CC(=O)Nc2c(C)cccc2C)CC1 (stereo not given) [RANOLAZINE] |
| Compound metabolized | Nc1ccc(/N=N/c2ccccc2)c(N)n1 [PHENAZOPYRIDINE] |

settings: human gut metagenome, 24 h, 2 µM; remark: another data set of the same source

| Bacterial Biotransformation | Compound |
| --- | --- |
| Compound NOT metabolized | COc1ccccc1OCC(O)CN1CCN(CC(=O)Nc2c(C)cccc2C)CC1 (stereo not given) [RANOLAZINE] |
| Compound metabolized | Nc1ccc(/N=N/c2ccccc2)c(N)n1 [PHENAZOPYRIDINE] |

test: as §1, with “Z-016” for “WLS-310”, “mouse” for “human”, “ERS12561815” for “ERS12561785”; settings: 2 µM

| Bacterial Biotransformation | Compound |
| --- | --- |
| Compound NOT metabolized | COc1ccccc1OCC(O)CN1CCN(CC(=O)Nc2c(C)cccc2C)CC1 (stereo not given) [RANOLAZINE] |
| Compound metabolized | Nc1ccc(/N=N/c2ccccc2)c(N)n1 [PHENAZOPYRIDINE] |

settings: human gut metagenome, 24 h, 2 µM; remark: another data set of the same source

| Bacterial Biotransformation | Compound |
| --- | --- |
| Compound NOT metabolized | COc1ccccc1OCC(O)CN1CCN(CC(=O)Nc2c(C)cccc2C)CC1 (stereo not given) [RANOLAZINE] |
| Compound metabolized | Nc1ccc(/N=N/c2ccccc2)c(N)n1 [PHENAZOPYRIDINE] |

test: as §1, with “Z-030” for “WLS-310”, “mouse” for “human”, “ERS12561829” for “ERS12561785”; settings: 2 µM

| Bacterial Biotransformation | Compound |
| --- | --- |
| Compound NOT metabolized | COc1ccccc1OCC(O)CN1CCN(CC(=O)Nc2c(C)cccc2C)CC1 (stereo not given) [RANOLAZINE] |
| Compound metabolized | Nc1ccc(/N=N/c2ccccc2)c(N)n1 [PHENAZOPYRIDINE] |

test: as §1, with “Z-014” for “WLS-310”, “rat” for “human”, “ERS12561814” for “ERS12561785”; settings: 2 µM

| Bacterial Biotransformation | Compound |
| --- | --- |
| Compound NOT metabolized | COc1ccccc1OCC(O)CN1CCN(CC(=O)Nc2c(C)cccc2C)CC1 (stereo not given) [RANOLAZINE] |
| Compound metabolized | Nc1ccc(/N=N/c2ccccc2)c(N)n1 [PHENAZOPYRIDINE] |

test: as §1, with “Z-019” for “WLS-310”, “rat” for “human”, “ERS12561818” for “ERS12561785”; settings: 2 µM

| Bacterial Biotransformation | Compound |
| --- | --- |
| Compound NOT metabolized | COc1ccccc1OCC(O)CN1CCN(CC(=O)Nc2c(C)cccc2C)CC1 (stereo not given) [RANOLAZINE] |
| Compound metabolized | Nc1ccc(/N=N/c2ccccc2)c(N)n1 [PHENAZOPYRIDINE] |

test: as §1, with “Z-018” for “WLS-310”, “pig” for “human”, “ERS12561817” for “ERS12561785”; settings: 2 µM

| Bacterial Biotransformation | Compound |
| --- | --- |
| Compound NOT metabolized | COc1ccccc1OCC(O)CN1CCN(CC(=O)Nc2c(C)cccc2C)CC1 (stereo not given) [RANOLAZINE] |
| Compound metabolized | Nc1ccc(/N=N/c2ccccc2)c(N)n1 [PHENAZOPYRIDINE] |

settings: human gut metagenome, 24 h, 2 µM; remark: another data set of the same source

| Bacterial Biotransformation | Compound |
| --- | --- |
| Compound NOT metabolized | COc1ccccc1OCC(O)CN1CCN(CC(=O)Nc2c(C)cccc2C)CC1 (stereo not given) [RANOLAZINE] |
| Compound metabolized | Nc1ccc(/N=N/c2ccccc2)c(N)n1 [PHENAZOPYRIDINE] |

settings: human gut metagenome, 24 h, 2 µM; remark: another data set of the same source

| Bacterial Biotransformation | Compound |
| --- | --- |
| Compound NOT metabolized | COc1ccccc1OCC(O)CN1CCN(CC(=O)Nc2c(C)cccc2C)CC1 (stereo not given) [RANOLAZINE] |
| Compound metabolized | Nc1ccc(/N=N/c2ccccc2)c(N)n1 [PHENAZOPYRIDINE] |

settings: human gut metagenome, 24 h, 2 µM; remark: another data set of the same source

| Bacterial Biotransformation | Compound |
| --- | --- |
| Compound NOT metabolized | COc1ccccc1OCC(O)CN1CCN(CC(=O)Nc2c(C)cccc2C)CC1 (stereo not given) [RANOLAZINE] |
| Compound metabolized | Nc1ccc(/N=N/c2ccccc2)c(N)n1 [PHENAZOPYRIDINE] |

test: as §1, with “Z-023” for “WLS-310”, “to” for “to human gut”, “ERS12561822” for “ERS12561785”; settings: 2 µM

| Bacterial Biotransformation | Compound |
| --- | --- |
| Compound metabolized | COc1ccccc1OCC(O)CN1CCN(CC(=O)Nc2c(C)cccc2C)CC1 (stereo not given) [RANOLAZINE] |
| Compound metabolized | Nc1ccc(/N=N/c2ccccc2)c(N)n1 [PHENAZOPYRIDINE] |

test: as §1, with “WLS-086” for “WLS-310”, “ERS12561752” for “ERS12561785”; settings: 2 µM

| Bacterial Biotransformation | Compound |
| --- | --- |
| Compound metabolized | COc1ccccc1OCC(O)CN1CCN(CC(=O)Nc2c(C)cccc2C)CC1 (stereo not given) [RANOLAZINE] |
| Compound metabolized | Nc1ccc(/N=N/c2ccccc2)c(N)n1 [PHENAZOPYRIDINE] |

settings: human gut metagenome, 24 h, 2 µM; remark: another data set of the same source

| Bacterial Biotransformation | Compound |
| --- | --- |
| Compound NOT metabolized | COc1ccccc1OCC(O)CN1CCN(CC(=O)Nc2c(C)cccc2C)CC1 (stereo not given) [RANOLAZINE] |
| Compound metabolized | Nc1ccc(/N=N/c2ccccc2)c(N)n1 [PHENAZOPYRIDINE] |

settings: human gut metagenome, 24 h, 2 µM; remark: another data set of the same source

| Bacterial Biotransformation | Compound |
| --- | --- |
| Compound NOT metabolized | COc1ccccc1OCC(O)CN1CCN(CC(=O)Nc2c(C)cccc2C)CC1 (stereo not given) [RANOLAZINE] |
| Compound metabolized | Nc1ccc(/N=N/c2ccccc2)c(N)n1 [PHENAZOPYRIDINE] |

settings: human gut metagenome, 24 h, 2 µM; remark: another data set of the same source

| Bacterial Biotransformation | Compound |
| --- | --- |
| Compound NOT metabolized | COc1ccccc1OCC(O)CN1CCN(CC(=O)Nc2c(C)cccc2C)CC1 (stereo not given) [RANOLAZINE] |
| Compound metabolized | Nc1ccc(/N=N/c2ccccc2)c(N)n1 [PHENAZOPYRIDINE] |

settings: human gut metagenome, 24 h, 2 µM; remark: another data set of the same source

| Bacterial Biotransformation | Compound |
| --- | --- |
| Compound NOT metabolized | COc1ccccc1OCC(O)CN1CCN(CC(=O)Nc2c(C)cccc2C)CC1 (stereo not given) [RANOLAZINE] |
| Compound metabolized | Nc1ccc(/N=N/c2ccccc2)c(N)n1 [PHENAZOPYRIDINE] |
